From ChEMBL document CHEMBL5226341, “Discovery of a Potent FLT3 Inhibitor (LT-850-166) with the Capacity of Overcoming a Variety of FLT3 Mutations” (J Med Chem, 2021)
The source made the active and inactive calls. The rule behind the calls is not given here.

Tests used:
[1] = test system: BaF3; experiment: Antiproliferative activity against mouse BaF3 cells harboring FLT3-ITD-F691L mutant assessed as reduction in cell viability incubated for 72 hrs by CellTiterGlo luminescent assay; type: functional, cell-based; conditions: BaF3, 72 h
[2] = test system: MV4-11; experiment: Induction of apoptosis in human MV4-11 cells assessed as viable cells at 50 nM incubated for 24 hrs by AnnexinV-FITC/PI staining based flow cytometry (reference value: 92.3%); type: functional; conditions: read-out: Activity
[3] = test system: MV4-11; experiment: Antitumor activity against human MV4-11 cells xenografted in BALB/c mouse assessed as inhibition rate of tumor weight at 15 mg/kg, iv BID for 21 days by vernier caliper analysis; type: functional; conditions: MV4-11, 504 h, time 21 day
[4] = Induction of apoptosis in mouse HCD-57 cells at 100 nM incubated for 24 hrs by AnnexinV-FITC/PI staining based flow cytometry; type: toxicity, cell-based; conditions: hcd-57, 24 h, 0.1 µM
[5] = AUC (0 to t) in Sprague-Dawley rat at 1 mg/kg, iv measured for 24 hrs by LC-MS/MS analysis; type: ADME, organism-based; parameters: dose 1 mg/kg, time 24 hrs, route iv; conditions: in vivo
[6] = test system: BaF3; experiment: Antiproliferative activity against mouse BaF3 cells harboring FLT3-ITD-Y842H mutant assessed as reduction in cell viability measured after 72 hrs by CellTiterGlo luminescent assay; type: functional, cell-based; conditions: BaF3, 72 h
[7] = test system: A549; experiment: Antiproliferative activity against human A549 cells assessed as reduction in cell viability measured after 72 hrs by CellTiterGlo luminescent assay; type: functional, cell-based; conditions: A549, 72 h
[8] = test system: HCD-57; experiment: Induction of apoptosis in mouse HCD-57 cells harboring FLT3-ITD mutant at 100 nM incubated for 24 hrs by AnnexinV-FITC/PI staining based flow cytometry; type: functional, cell-based
[9] = test system: MV4-11; experiment: Induction of apoptosis in human MV4-11 cells assessed as early apoptotic cells at 50 nM incubated for 24 hrs by AnnexinV-FITC/PI staining based flow cytometry (reference value: 3.09%); type: functional
[10] = Oral bioavailability in Sprague-Dawley rat at 10 mg/kg measured for 24 hrs by LC-MS/MS analysis; type: ADME, organism-based; conditions: in vivo
[11] = test system: MV4-11; experiment: Antiproliferative activity against human MV4-11 cells assessed as inhibition of cell growth incubated for 72 hrs by CellTiterGlo luminescent assay; type: functional, cell-based; conditions: MV4-11, 72 h
[12] = Toxicity in BALB/c mouse xenografted with human MV4-11 cells assessed as morphological changes in kidney at 15 mg/kg, iv for 21 days by H and E staining based analysis; type: organism-based; conditions: in vivo, 504 h, time 21 day
[13] = test system: MV4-11; experiment: Induction of apoptosis in human MV4-11 cells assessed as late apoptotic cells at 10 nM incubated for 24 hrs by AnnexinV-FITC/PI staining based flow cytometry (reference value: 4.2%); type: functional
[14] = test system: Receptor-type tyrosine-protein kinase FLT3 (Homo sapiens), P36888 [UNDEFINED MUTATION]; experiment: Inhibition of FLT3-ITD-F691L mutant (unknown origin) transformed in mouse BaF3 cells assessed as inhibition of ERK phosphorylation at Thr202/Tyr204 residue incubated for 4 hrs by western blot analysis; type: cell-based; conditions: dose 0.1-100 nM
Sequence of Receptor-type tyrosine-protein kinase FLT3 (Homo sapiens), P36888 [UNDEFINED MUTATION] (P36888 whole entry, looked up, stated change not applied): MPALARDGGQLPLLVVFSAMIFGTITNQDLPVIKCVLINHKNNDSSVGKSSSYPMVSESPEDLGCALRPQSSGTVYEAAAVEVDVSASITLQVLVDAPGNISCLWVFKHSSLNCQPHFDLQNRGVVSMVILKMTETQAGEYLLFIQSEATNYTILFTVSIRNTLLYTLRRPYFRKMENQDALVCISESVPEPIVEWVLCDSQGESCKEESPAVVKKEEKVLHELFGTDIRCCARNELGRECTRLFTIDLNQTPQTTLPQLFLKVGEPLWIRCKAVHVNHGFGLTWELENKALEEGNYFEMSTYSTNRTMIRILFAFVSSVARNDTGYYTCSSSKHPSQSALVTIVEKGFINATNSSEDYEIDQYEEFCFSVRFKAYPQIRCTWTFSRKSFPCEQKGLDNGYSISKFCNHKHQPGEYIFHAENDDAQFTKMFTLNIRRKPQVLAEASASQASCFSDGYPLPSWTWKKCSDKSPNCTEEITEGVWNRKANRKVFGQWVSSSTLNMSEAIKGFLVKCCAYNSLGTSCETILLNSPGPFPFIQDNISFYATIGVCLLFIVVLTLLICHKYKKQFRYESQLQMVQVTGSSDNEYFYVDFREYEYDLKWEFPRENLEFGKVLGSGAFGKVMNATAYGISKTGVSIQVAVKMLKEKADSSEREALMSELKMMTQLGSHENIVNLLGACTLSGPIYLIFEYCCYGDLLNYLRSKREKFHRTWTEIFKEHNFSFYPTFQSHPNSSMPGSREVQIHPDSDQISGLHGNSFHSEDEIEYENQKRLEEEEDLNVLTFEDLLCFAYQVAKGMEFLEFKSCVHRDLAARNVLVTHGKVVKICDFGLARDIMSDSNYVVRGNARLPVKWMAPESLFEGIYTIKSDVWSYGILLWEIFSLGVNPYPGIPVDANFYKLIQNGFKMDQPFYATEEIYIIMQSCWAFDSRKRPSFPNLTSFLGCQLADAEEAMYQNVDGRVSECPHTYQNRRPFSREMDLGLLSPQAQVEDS

[15] = test system: BaF3; type: functional, cell-based; conditions: Mus musculus, BaF3, 72 h
[16] = Toxicity in ICR mouse assessed as effect on animal's survival rate at 100 mg/kg, iv administered as single dose and measured for 14 days; type: organism-based; conditions: in vivo, 336 h, time 14 day
[17] = test system: U-937; experiment: Antiproliferative activity against human U-937 cells assessed as reduction in cell viability measured after 72 hrs by CellTiterGlo luminescent assay; type: functional, cell-based; conditions: U-937, 72 h

SMILES: CCN1CCN(c2ccc(C(=O)Nc3cc(-c4ccc5ncn(Cc6c(Cl)cccc6Cl)c5c4)[nH]n3)cc2)CC1
- IC50 [1]: 8.3 nM
- viability at 0.05 µM [2]: 61.5%
- inhibition in vivo at 15 mg/kg [3]: 85.2%
- Activity [4]: Non-Toxic
- AUC(0-t) at 24 h [5]: 391 ng·h/mL
- IC50 [6]: < 1.5 nM
- IC50 [7]: 3.66 µM
- Activity [8]: Active
- Activity [9]: 11.3%
- bioavailability [10]: 1.3%
- IC50 [11]: 2.93 nM
- Activity [12]: Non-Toxic
- Activity [13]: 20.5%
- inhibition [14]: Dose-Dependent Effect
- IC50 [15]: < 1.5 nM
- Activity [16]: Non-Toxic
- IC50 [17]: > 2000 nM
